Experimental data published in patent publication US20190134150A1, “THERAPEUTIC METHODS FOR EXCITATORY NEUROTOXICITY-RELATED INJURIES” (Biocells (Beijing) Biotech Co., Ltd., priority 2016, published 2019).
Where “and” joins values, the source holds several entries; their conditions need not be identical. Equal entries are not always repeated. No end group written: not given here.

Legend:
[1] = test system: MCAO model rats; experiment: Cerebral infarction volume (TTC staining) in MCAO model rats; conditions: rat, in vivo
Description: The focal cerebral ischemia-reperfusion model was prepared according to the reversible middle cerebral artery occlusion (MCAO) suture method proposed by Longa with modifications in view of the anatomical structure of the rat brain. The rats were anesthetized by intraperitoneal administration of 10% chloral hydrate at a dose of […]. After anesthetization, a cut was created at the cervical midline, and the common carotid artery (CCA), external carotid artery (ECA) and pterygopalatine artery were exposed. The head portion (0.5 cm) of a monofilament nylon fishing line (0.26 mm) was coated with paraffin and a mark was made at 20 mm. All rats were inserted through the right CCA incision, and the pterygopalatine artery was temporarily clamped to prevent mis-insertion. The length of the occlusion line was about 18-20 mm from the bifurcation of CCA depending on the animal's weight, thereby occluding middle cerebral artery on the right side. The skin was then sewed, and the tail end of the occlusion line was partially fixed to the skin. After a period of ischemia for 2 hours, the occlusion line was carefully pulled out to form a reperfusion. The procedure steps for the sham control were the same as the surgery group, except for insertion of a nylon fishing line. The body temperature was maintained at 37±0.5° C. during the ischemia period and 2 h after reperfusion.
The used animals were male adult SD rats (Vittalia) of SPF grade with body weight of 220-250 g.
The experimental animals were divided into the negative control group, sham group, model group, positive drug Enbipu group, NA-1 group, YE-NA-1 group and P6 group. A saline solution, positive drug Enbipu, NA-1 (10 mg/kg), YE-NA-1 (10 mg/kg) and P6 (10 mg/kg, 3 mg/kg and 1 mg/kg) were respectively administered to individual group of rats via tail vein injection at 1 hour after ischemia. No drugs were administered to the normal group and the sham group.
The rats were sacrificed by decapitation after scoring. The brain tissues were quickly removed and placed in a refrigerator at −20° C. After 10 minutes, the tissues were placed in a room temperature environment. The brains were placed in a rat brain section mold. After the olfactory bulb, cerebellum and low brain stem were removed, the brains were coronally cut five times at 2 mm thickness as shown in the profile to obtain six continuous raw coronal slices. Then, the brain sections were quickly placed in a 5 ml solution containing 2% TTC, and incubated at 37° C. for 30 minutes in the dark, during which the brain sections were flipped once every 5 minutes. With the TTC staining, the normal tissue would be rose red, and the infarcted tissue would be unstained and retained white. Each group of brain sections was arranged neatly, and photographed. The photos were processed by an image analysis system software and statistically analyzed. The infarction area of each brain section was calculated, and multiplied by the thickness of each brain section (2 mm). The products of the infarction area of individual brain section multiplied by the thickness were summed to obtain the cerebral infarction volume for each animal. The volumes were expressed as percentages accounting for the cerebral hemisphere to eliminate the effects of cerebral edema.

[2] = molecular target: PDZ1/2 domain; experiment: SPR, Biacore 3000, PDZ1/2 amine-coupled on CM5 chip, peptide as analyte, 1:1 model

YGRKKRRQRRRKLSSIESDV [NA-1, reference compound]
Mean of infarction volume percentage [1]: 38.56%

YGRKKRRQRRRYEKLSSIESDV [YE-NA-1, reference compound]
Mean of infarction volume percentage [1]: 33.96%

YGRKKRRQRRRYEKLTTLDTGGV [P6]
Mean of infarction volume percentage [1]: 26.71% and 37.89% and 43.75%
Mean of infarction volume percentage ([1]; 1 mg/kg): 41.56%
Reduction of infarction volume percentage vs model group ([1]; 1 mg/kg): 9.57%
Mean of infarction volume percentage ([1]; 3 mg/kg): 38.34%
Reduction of infarction volume percentage vs model group ([1]; 3 mg/kg): 16.58%
effect on cerebral infarction volume ([1]; 3 mg/kg): desirably reduced the cerebral infarction volume
Mean of infarction volume percentage ([1]; 10 mg/kg): 19.54%
Reduction of infarction volume percentage vs model group ([1]; 10 mg/kg): 57.48%
reduction of cerebral infarction volume ([1]; 10 mg/kg): about 50%

control chimeric peptide NA-1
Kd [2]: 75.3 nM

YGRKKRRQRRRYEKLSSIESDV [chimeric peptide YE-NA-1]
Kd [2]: 54.4 nM
